Test results as given in the NIST ThermoML archive (doi:10.1016/j.jct.2014.06.004).

Assays:
[1] = 100 kPa, Liquid; for speed of sound: Frequency=3 MHz, Sing-around technique in a fixed-path interferometer; for mass density: Vibrating tube method
[2] = refractive index (Na D-line) (dimensionless); settings: 101.33 kPa, Liquid, Standard Abbe refractometry
[3] = xn = mol fraction of the nth substance listed; settings: 100 kPa, Liquid; for speed of sound: Frequency=3 MHz, Sing-around technique in a fixed-path interferometer; for mass density: Vibrating tube method
[4] = refractive index (Na D-line) (dimensionless); xn = mol fraction of the nth substance listed; settings: 100 kPa, Liquid, Standard Abbe refractometry

CCCC(=O)O [butanoic acid]
Settings	mass density, [1] [kg/m3]	refractive index, [2]	speed of sound, [1] [m/s]
293.15 K	957.8	1.3983	1196
298.15 K	952.8	1.3963	1177
303.15 K	947.9	1.3942	1158
308.15 K	942.9	1.3922	1139
313.15 K	938.1	1.3901	1121

CCCC(=O)O [butanoic acid] + CCCCCCC(=O)O
x2 = 0
Settings	mass density, [3] [kg/m3]	refractive index, [4]	speed of sound, [3] [m/s]
293.15 K	957.8	1.3983	1196
298.15 K	952.8	1.3963	1177
303.15 K	947.9	1.3942	1158
308.15 K	942.9	1.3922	1139
313.15 K	938.1	1.3901	1121

CCOC(=O)OCC [diethyl carbonate]
298.15 K
Settings	mass density [kg/m3]	refractive index	speed of sound [m/s]
[1]	969.3	–	1177
[2]	–	1.3825	–

CCOC(=O)OCC [diethyl carbonate] + CCO
298.15 K
Settings	mass density, [3] [kg/m3]	refractive index, [4]	speed of sound, [3] [m/s]
x1 = 0.0415	800.3	1.3614	1145
x1 = 0.0943	817.7	1.3635	1147
x1 = 0.1932	845.9	1.367	1150
x1 = 0.2929	869.6	1.3698	1154
x1 = 0.3938	890	1.3724	1156
x1 = 0.4965	907.8	1.3746	1159
x1 = 0.597	923	1.3765	1162
x1 = 0.6924	935.7	1.3781	1166
x1 = 0.7911	947.6	1.3796	1169
x1 = 0.899	959.3	1.3811	1173
x1 = 0.9413	963.6	1.3817	1175
x1 = 1	969.3	1.3825	1177

CCO [ethanol]
298.15 K
Settings	mass density [kg/m3]	refractive index	speed of sound [m/s]
[1]	785.2	–	1142
[2]	–	1.3594	–

CCO [ethanol] + CCOC(=O)OCC
298.15 K, x2 = 0
Settings	mass density [kg/m3]	refractive index	speed of sound [m/s]
[3]	785.2	–	1142
[4]	–	1.3594	–

CCCCCCC(=O)O [heptanoic acid]
Settings	mass density, [1] [kg/m3]	refractive index, [2]	speed of sound, [1] [m/s]
293.15 K	917.7	1.4234	1295
298.15 K	913.5	1.4214	1278
303.15 K	909.3	1.4194	1260
308.15 K	905.1	1.4173	1242
313.15 K	900.9	1.4153	1225

CCC(=O)O [propanoic acid]
Settings	mass density, [1] [kg/m3]	refractive index, [2]	speed of sound, [1] [m/s]
293.15 K	993.9	1.3865	1166
298.15 K	988.5	1.3848	1147
303.15 K	983.1	1.383	1128
308.15 K	977.7	1.3811	1109
313.15 K	972.3	1.3792	1090

CCC(=O)O [propanoic acid] + CCCCCCC(=O)O
x2 = 0
Settings	mass density, [3] [kg/m3]	refractive index, [4]	speed of sound, [3] [m/s]
293.15 K	993.9	1.3865	1166
298.15 K	988.5	1.3848	1147
303.15 K	983.1	1.383	1128
308.15 K	977.7	1.3811	1109
313.15 K	972.3	1.3792	1090
